Values of other authors as cited in patent US20160287529A1, “METHOD FOR TREATING AND PREVENTING RECURRENT INTERDIGITAL TINEA PEDIS (ATHLETE'S FOOT) DISEASE” (priority 2015, published 2016).

Test system: fungal infections of the skin and nails of the human foot
Details: topical treatment

SMILES	effectiveness compared with the allylamines
C=CCCCCCCCCC(=O)O [undecenoic acid]	less effective
Cc1cccc(N(C)C(=S)Oc2ccc3ccccc3c2)c1 [tolnaftate]	less effective
